Source: ChEMBL document CHEMBL1201862, “PubChem BioAssay data set” (2004)
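Tested at 5 concentrations; 48 h exposure; 96-well plates; endpoints linearly interpolated, else capped at highest concentration. GI50 is the concentration that inhibits growth by half.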 Active and inactive are the calls of the source. Cut-off read from the data, not from the text of the source: active = GI50 up to about 1.1 µM and inactive = higher.

Assays:
Test in all cases: inhibition of tumour cell growth, NCI panel, 48 h
[1] = test system: TK-10
[2] = test system: OVCAR-5
[3] = test system: ACHN
[4] = test system: A498
[5] = test system: OVCAR-8
[6] = test system: PC-3
[7] = test system: RXF 393
[8] = test system: Malme-3M
[9] = test system: SNB-75
[10] = test system: 786-0
[11] = test system: UACC-62
[12] = test system: OVCAR-3
[13] = test system: SK-MEL-5
[14] = test system: CCRF-CEM
[15] = test system: OVCAR-4
[16] = test system: SK-MEL-2
[17] = test system: NCI/ADR-RES
[18] = test system: M14
[19] = test system: HL-60

| Compound | GI50 [1] | GI50 [2] | GI50 [3] | GI50 [4] | GI50 [5] | GI50 [6] | GI50 [7] | GI50 [8] | GI50 [9] | GI50 [10] | GI50 [11] | GI50 [12] | GI50 [13] | GI50 [14] | GI50 [15] | GI50 [16] | GI50 [17] | GI50 [18] | GI50 [19] |
| --- | --- | --- | --- | --- | --- | --- | --- | --- | --- | --- | --- | --- | --- | --- | --- | --- | --- | --- | --- |
| CC(C)(C)OC(=O)NCCCCC(NC(=O)c1ccccc1)C(N)=O (stereo not given) | > 100 µM (inactive) | > 100 µM (inactive) | > 100 µM (inactive) | > 100 µM (inactive) | > 100 µM (inactive) | > 100 µM (inactive) | > 100 µM (inactive) | > 100 µM (inactive) | > 100 µM (inactive) | > 100 µM (inactive) | 71.9 µM (inactive) | > 100 µM (inactive) | > 100 µM (inactive) | > 100 µM (inactive) | > 100 µM (inactive) | > 100 µM (inactive) | > 100 µM (inactive) | > 100 µM (inactive) |  |
| O=c1[nH]nc(Cc2ccc(Cl)cc2)n1Nc1ccccc1 | > 100 µM (inactive) | > 100 µM (inactive) | > 100 µM (inactive) | > 100 µM (inactive) | > 100 µM (inactive) | > 100 µM (inactive) |  | > 100 µM (inactive) | 48.8 µM (inactive) | 73.6 µM (inactive) | > 100 µM (inactive) | > 100 µM (inactive) | > 100 µM (inactive) | > 100 µM (inactive) | > 100 µM (inactive) | > 100 µM (inactive) | > 100 µM (inactive) | > 100 µM (inactive) |  |
| C[C@@H]1CCC2C(C)(C)C(/C=C\C=O)C3(C)OC213 (stereo not given in full) | 72.6 µM (inactive) | 24.5 µM (inactive) | 71.4 µM (inactive) | > 100 µM (inactive) | 20.2 µM (inactive) | 41.2 µM (inactive) | 33.3 µM (inactive) | 24.5 µM (inactive) | 29.1 µM (inactive) | 28.8 µM (inactive) | 53.2 µM (inactive) | 33.4 µM (inactive) | 20.3 µM (inactive) |  | 54.5 µM (inactive) | 42.9 µM (inactive) | 30 µM (inactive) | 65.2 µM (inactive) |  |
| CN1CCCOC(c2ccc(Cl)cc2)O1 (stereo not given) | > 100 µM (inactive) | > 100 µM (inactive) | > 100 µM (inactive) | > 100 µM (inactive) | > 100 µM (inactive) | > 100 µM (inactive) | > 100 µM (inactive) | > 100 µM (inactive) | > 100 µM (inactive) | > 100 µM (inactive) | > 100 µM (inactive) | > 100 µM (inactive) | > 100 µM (inactive) | > 100 µM (inactive) | > 100 µM (inactive) | > 100 µM (inactive) | > 100 µM (inactive) | > 100 µM (inactive) |  |
| O=C1CC(Nc2ccccc2)c2c(Cl)sc(Cl)c21 (stereo not given) | 1.81 µM (inactive) | 2.34 µM (inactive) | 1.18 µM (inactive) | 2.5 µM (inactive) | 1.4 µM (inactive) | 1.49 µM (inactive) |  | 1.42 µM (inactive) | 2.31 µM (inactive) | 0.234 µM (active) | 1.32 µM (inactive) | 1.79 µM (inactive) | 4.66 µM (inactive) | 0.127 µM (active) | 2.01 µM (inactive) | 1.89 µM (inactive) | 2.42 µM (inactive) | 1.66 µM (inactive) | 0.199 µM (active) |
| COC(=O)C1=C(C(=O)OC)SC(=C2c3ccsc3-c3sccc32)S1 | 24.5 µM (inactive) | > 100 µM (inactive) | 74.8 µM (inactive) | 24.5 µM (inactive) | 29.1 µM (inactive) | 47 µM (inactive) | 18.3 µM (inactive) | 43.2 µM (inactive) | 15.9 µM (inactive) | 21.4 µM (inactive) | 26.6 µM (inactive) | 31 µM (inactive) | 31.9 µM (inactive) | 38.1 µM (inactive) | > 10 µM (inactive) |  | 62.8 µM (inactive) | 36.6 µM (inactive) | 24 µM (inactive) |
| NC(Cc1ccccc1)(C(=O)O)C(=O)O | > 100 µM (inactive) | > 100 µM (inactive) | > 100 µM (inactive) | > 100 µM (inactive) | > 100 µM (inactive) | > 100 µM (inactive) | > 100 µM (inactive) | > 100 µM (inactive) |  | > 100 µM (inactive) | > 100 µM (inactive) | > 100 µM (inactive) | > 100 µM (inactive) | > 100 µM (inactive) | > 100 µM (inactive) | > 100 µM (inactive) | > 100 µM (inactive) | > 100 µM (inactive) |  |
| COc1cc2cc3c4cc(OC)c(OC)cc4cc[n+]3c(C)c2cc1OC [CORALYNE] | > 100 µM (inactive) | > 100 µM (inactive) | > 100 µM (inactive) | 6.05 µM (inactive) | > 100 µM (inactive) | > 100 µM (inactive) |  | 60.1 µM (inactive) | 10.2 µM (inactive) | 15.6 µM (inactive) | 23.4 µM (inactive) | > 100 µM (inactive) | 72.1 µM (inactive) | > 100 µM (inactive) | 67.5 µM (inactive) | > 100 µM (inactive) | > 100 µM (inactive) |  | > 100 µM (inactive) |
